Data taken from PubChem BioAssay AID1919004 (Molecular Pharmacology Branch, DTP, NCI, 2023).

Test system: 883617-216-R-J1-PDC complex spheroids, growth, % test/control
Assay: Anticancer human tumor 883617-216-R-J1-PDC patient-derived bladder carcinoma cell line growth inhibition [AhR]
Settings: for IC50: curve of first compound; for viability, T/C: stronger effect = lower value
Excerpt: Multicellular complex tumor spheroid response to aryl hydrocarbon receptor antagonists in combination with a variety of drugs and investigational agents in selected tumor cell lines
The current study was undertaken to assess response to aryl hydrocarbon receptor antagonists in combination with standard-of-care drugs and investigational agents in solid tumor complex spheroid models. Complex spheroids include a stromal component modeled by human endothelial cells (HUVEC) and fibroblasts modeled by human mesenchymal stem cells (MSCs). The concentration ranges selected for each drug and investigational agent were based upon clinically achievable concentrations if the clinical Cmax of the agent was known.
Compounds. The drugs and investigational agents: BAY 2416964 (NSC825713), GNF351 (NSC835774), CH-223191 (NSC835775), CPI-455 (NSC825282), aza-TdCyd (NSC777586), decitabine (NSC127716), belinostat (NSC758774), entinostat (NSC756642), pevonedistat (NSC761192), tazemetostat (NSC777109), talazoparib (NSC765396), olaparib (NSC753686), selinexor (NSC780203), nedisertib (M3814, NSC802822), bortezomib (NSC756655), venetoclax (NSC766270), doxorubicin (NSC123127), elimusertib (BAY189344, NSC800525), ceralasertib (AZD6738, NSC777638), TAK-243 (NSC785004), alisertib (NSC759677), etoposide (NSC141540), topotecan (NSC609699), eribulin (NSC707389), gemcitabine (NSC613327), carboplatin (NSC241240), cisplatin (NSC119875), and SN-38 (NSC673596) were obtained from the National Cancer Institute (NCI) Developmental Therapeutics Program Chemical Repository (32). The FDA-approved anticancer drug set is available from the Developmental Therapeutics Program at https://dtp.cancer.gov/organization/dscb/obtaining/available plates.htm. […] The stock solutions were prepared in dimethyl sulfoxide (DMSO, Sigma-Aldrich, St. Louis, MO, cat. D2650), except for the platinum compounds which were prepared in saline (Quality Biological, Gaithersburg, MD, cat. 114-055-101), at 800-fold the tested concentration and stored at -70 degrees C prior to their use. All drugs and investigational agents were tested over a range starting from a high concentration at or near the clinical Cmax and decreasing in half-log increments. If the clinical Cmax for an agent had not been determined, the highest concentration tested was 10 microM (Table 1).
Cell Culture. All cells were maintained in an incubator at 37 degrees C and 5% CO2 with 95% humidity. The PDC lines were cultured according to standard operating procedures established by the NCI PDMR (https://pdmr.cancer.gov). Briefly, all PDCs were thawed and cultured in Matrigel-coated flasks prepared with a working solution of 1X Ham's F-12 nutrient mix, without supplementation (Invitrogen, Waltham, MA, cat. 11765054), 100 U/mL penicillin-streptomycin (Invitrogen, cat. 15140122), and 2.5% Matrigel (Corning Inc., Corning, NY, cat. 354248) for the first three passages. All PDCs were cultured in complete DMEM/F-12 media containing advanced DMEM/F-12 (Invitrogen, cat. 12634028), 4.9% defined fetal bovine serum, heat inactivated (HyClone Laboratories Inc., Logan, UT, cat. SH30070.03HI), 389 ng/mL hydrocortisone (Sigma-Aldrich, cat. H4001), 9.7 ng/mL human EGF recombinant protein (Invitrogen, cat. PHG0313), 23.4 microg/mL adenine (Sigma-Aldrich, cat. A2786), 97.3 U/mL penicillin-streptomycin (Invitrogen, cat. 15140122), 1.9 mM L-glutamine (Invitrogen, cat. 25030081), and 9.7 microM Y-27632 dihydrochloride (Tocris Bioscience, Bristol, United Kingdom, cat. 1254). The PDCs were cultured in complete DMEM/F12 media without 10 microM Y-27632 dihydrochloride for at least two passages prior to the screen. The established cell lines NCI-H1341 and […] were cultured in DMEM/F-12, HEPES (Invitrogen, cat. 11330032), 5% defined fetal bovine serum (HyClone Laboratories Inc., cat. SH30070.03), ITS premix universal culture supplement [insulin (5 microg/mL), transferrin (5 microg/mL), and selenious acid (5 ng/mL)] […]
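Further: exposure lasted 7 days after dosing on day 3 of spheroid growth.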

O=C(C=Cn1cnc(-c2cc(C(F)(F)F)cc(C(F)(F)F)c2)n1)NNc1cnccn1 + Cc1cncc(-c2nc(NCCc3c[nH]c4ccccc34)c3ncn(C(C)C)c3n2)c1
IC50 (second compound 0.1 µM): 900 nM
IC50 (second compound 0.316 µM): 1380 nM
IC50 (second compound 1 µM): 1760 nM
IC50 (second compound 3.16 µM): 1530 nM
IC50 (second compound 10 µM): < 9.49 nM
viability, T/C (second compound 0.1 µM, first compound 0.00949 µM): 81.5%
viability, T/C (second compound 0.1 µM, first compound 0.03 µM): 74.9%
viability, T/C (second compound 0.1 µM, first compound 0.0949 µM): 63.7%
viability, T/C (second compound 0.1 µM, first compound 0.3 µM): 58.1%
viability, T/C (second compound 0.1 µM, first compound 0.949 µM): 50.1%
viability, T/C (second compound 0.1 µM, first compound 3 µM): 42.5%
viability, T/C (second compound 0.316 µM, first compound 0.00949 µM): 88.3%
viability, T/C (second compound 0.316 µM, first compound 0.03 µM): 78.4%
viability, T/C (second compound 0.316 µM, first compound 0.0949 µM): 72.3%
viability, T/C (second compound 0.316 µM, first compound 0.3 µM): 58.1%
viability, T/C (second compound 0.316 µM, first compound 0.949 µM): 57.1%
viability, T/C (second compound 0.316 µM, first compound 3 µM): 42.4%
viability, T/C (second compound 1 µM, first compound 0.00949 µM): 83%
viability, T/C (second compound 1 µM, first compound 0.03 µM): 79.1%
viability, T/C (second compound 1 µM, first compound 0.0949 µM): 69.5%
viability, T/C (second compound 1 µM, first compound 0.3 µM): 61.4%
viability, T/C (second compound 1 µM, first compound 0.949 µM): 62%
viability, T/C (second compound 1 µM, first compound 3 µM): 42.7%
viability, T/C (second compound 3.16 µM, first compound 0.00949 µM): 93.6%
viability, T/C (second compound 3.16 µM, first compound 0.03 µM): 88.2%
viability, T/C (second compound 3.16 µM, first compound 0.0949 µM): 80%
viability, T/C (second compound 3.16 µM, first compound 0.3 µM): 67.5%
viability, T/C (second compound 3.16 µM, first compound 0.949 µM): 52.9%
viability, T/C (second compound 3.16 µM, first compound 3 µM): 45.2%
viability, T/C (second compound 10 µM, first compound 0.00949 µM): 49.5%
viability, T/C (second compound 10 µM, first compound 0.03 µM): 40.5%
viability, T/C (second compound 10 µM, first compound 0.0949 µM): 32.4%
viability, T/C (second compound 10 µM, first compound 0.3 µM): 29.7%
viability, T/C (second compound 10 µM, first compound 0.949 µM): 42.5%
viability, T/C (second compound 10 µM, first compound 3 µM): 44.2%

NS(=O)(=O)OCC1CC(n2ccc3c(NC4CCc5ccccc54)ncnc32)CC1O (stereo not given) + CC(CO)NC(=O)c1cc(-c2ccc(Cl)cc2)nn(-c2cnn(C)c2)c1=O
IC50 (second compound 0.1 µM): 788 nM
IC50 (second compound 0.316 µM): 1500 nM
IC50 (second compound 1 µM): 1910 nM
IC50 (second compound 3.16 µM): 10000 nM
IC50 (second compound 10 µM): 1170 nM
viability, T/C (second compound 0.1 µM, first compound 0.0316 µM): 96.4%
viability, T/C (second compound 0.1 µM, first compound 0.1 µM): 90.6%
viability, T/C (second compound 0.1 µM, first compound 0.316 µM): 87.1%
viability, T/C (second compound 0.1 µM, first compound 1 µM): 40.6%
viability, T/C (second compound 0.1 µM, first compound 3.16 µM): 21%
viability, T/C (second compound 0.1 µM, first compound 10 µM): 27.2%
viability, T/C (second compound 0.316 µM, first compound 0.0316 µM): 55%
viability, T/C (second compound 0.316 µM, first compound 0.1 µM): 94%
viability, T/C (second compound 0.316 µM, first compound 0.316 µM): 63.4%
viability, T/C (second compound 0.316 µM, first compound 1 µM): 61.5%
viability, T/C (second compound 0.316 µM, first compound 3.16 µM): 28.2%
viability, T/C (second compound 0.316 µM, first compound 10 µM): 29.2%
viability, T/C (second compound 1 µM, first compound 0.0316 µM): 64.6%
viability, T/C (second compound 1 µM, first compound 0.1 µM): 55.6%
viability, T/C (second compound 1 µM, first compound 0.316 µM): 109%
viability, T/C (second compound 1 µM, first compound 1 µM): 67.6%
viability, T/C (second compound 1 µM, first compound 3.16 µM): 30.7%
viability, T/C (second compound 1 µM, first compound 10 µM): 42%
viability, T/C (second compound 3.16 µM, first compound 0.0316 µM): 75.8%
viability, T/C (second compound 3.16 µM, first compound 0.1 µM): 108%
viability, T/C (second compound 3.16 µM, first compound 0.316 µM): 55.6%
viability, T/C (second compound 3.16 µM, first compound 1 µM): 65.9%
viability, T/C (second compound 3.16 µM, first compound 3.16 µM): 27%
viability, T/C (second compound 3.16 µM, first compound 10 µM): 72.7%
viability, T/C (second compound 10 µM, first compound 0.0316 µM): 72.3%
viability, T/C (second compound 10 µM, first compound 0.1 µM): 109%
viability, T/C (second compound 10 µM, first compound 0.316 µM): 80.1%
viability, T/C (second compound 10 µM, first compound 1 µM): 51.1%
viability, T/C (second compound 10 µM, first compound 3.16 µM): 32.4%
viability, T/C (second compound 10 µM, first compound 10 µM): 16.4%
